Experimental data published in patent publication US20240109942A1, “CHOLECYSTOKININ (CCK) SECRETION-PROMOTING PEPTIDE TARGETING CALCIUM-SENSING RECEPTOR, AND PREPARATION METHOD AND USE THEREOF” (University of Shanghai for Science and Technology, priority 2022, published 2024).
Where no end group is shown, it is not given here.

System: STC-1 cell
Assay: MTT cell proliferation and cytotoxicity assay on STC-1 cell
Type: cell-based
Settings: absorbance 570 nm, peptide 0, 1, 2, 4 mmol/L, FIG. 2
Protocol: An STC-1 cell was cultured in a dulbecco's modified eagle medium (DMEM) containing 10% fetal bovine serum (FBS), 1% non-essential amino acids (NEAA), 100 U/mL penicillin and 0.1 mg/mL streptomycin. The cell was incubated in a cell incubator containing 5% CO2 at 37° C. and was subcultured by means of trypsin digestion when reaching 80%-90% density.
The effect of the active peptide of QGDVVALPA on the viability of the STC-1 cell was tested and evaluated by means of 3-(4,5-dimethylthiazol-2-yl)-2,5-diphenyltetrazolium bromide [3-(4,5-di methyl-2-thiazolyl)-2,5-di phenyl]-2H-tetrazolium bromide, methyl thiazolyl tetrazolium (MTT)) cell proliferation and cytotoxicity. MTT was added into the STC-1 cell treated in a 96-well plate, and a metabolically active cell cleaved yellow tetrazolium salt MTT into a purple formazan crystal. Formazan formed was dissolved, absorbance was measured with a microplate reader at a measurement wavelength of 570 nm, and results were expressed as a percentage of a control group.

## QGDVVALPA [QGDVVALPA, Gln-Gly-Asp-Val-Val-Ala-Leu-Pro-Ala]
  viability of the STC-1 cell compared with the control group: not changed
